# Laboratory results taken from ChEMBL document CHEMBL5316300, “Discovery of TP0597850: A Selective, Chemically Stable, and Slow Tight-Binding Matrix Metalloproteinase-2 Inhibitor with a Phenylbenzamide-Pentapeptide Hybrid Scaffold” (J Med Chem, 2023).
# Square brackets hold non-standard residues; d marks the D form. Peptide text beside a SMILES is read from it. * marks the point of attachment. Benzoyl(4-OPh(4-CONH2)) = NC(=O)c1ccc(Oc2ccc(C(=O)*)cc2)cc1; NMeI = CC[C@H](C)[C@H](NC)C(=O)O; NMeE = CN[C@@H](CCC(=O)O)C(=O)O; β3hP = O=C(O)C[C@@H]1CCCN1; Dab = NCC[C@H](N)C(=O)O; Ava = NCCCCC(=O)O
# Key:
# [1] = target: MMP-2/MMP-9 (Homo sapiens) (UniProt P08253+P14780); assay: Selectivity ratio of Ki for recombinant human MMP9 to Ki for recombinant human MMP2; format: protein assay
# [2] = target: T1, Macrophage metalloelastase (Homo sapiens, UniProt P39900); assay: Inhibition of human recombinant MMP12 using MOCAc-Lys-Pro-Leu-Gly-Leu-A2pr(Dnp)-Ala-Arg-N2 as substrate preincubated for 10 to 15 mins followed by substrate addition and measured after 60 to 120 mins by fluorescence based assay; conditions: read-out: IC50
# [3] = target: Stromelysin-1 (Homo sapiens, UniProt P08254); assay: Inhibition of human recombinant MMP3 using MOCAc-Lys-Pro-Leu-Gly-Leu-A2pr(Dnp)-Ala-Arg-N2 as substrate preincubated for 15 mins followed by substrate addition and measured after 120 mins by fluorescence based assay
# [4] = species: Homo sapiens; assay: Selectivity ratio of Ki for recombinant human MMP8 to Ki for recombinant human MMP2
# [5] = target: T2, 72 kDa type IV collagenase (Homo sapiens, UniProt P08253); assay: Inhibition of human recombinant MMP2 using MOCAc-Lys-Pro-Leu-Gly-Leu-A2pr(Dnp)-Ala-Arg-N2 as substrate preincubated for 5 mins followed by substrate addition and measured after 120 mins by fluorescence based assay
# Target sequence in this assay (P08253 whole entry): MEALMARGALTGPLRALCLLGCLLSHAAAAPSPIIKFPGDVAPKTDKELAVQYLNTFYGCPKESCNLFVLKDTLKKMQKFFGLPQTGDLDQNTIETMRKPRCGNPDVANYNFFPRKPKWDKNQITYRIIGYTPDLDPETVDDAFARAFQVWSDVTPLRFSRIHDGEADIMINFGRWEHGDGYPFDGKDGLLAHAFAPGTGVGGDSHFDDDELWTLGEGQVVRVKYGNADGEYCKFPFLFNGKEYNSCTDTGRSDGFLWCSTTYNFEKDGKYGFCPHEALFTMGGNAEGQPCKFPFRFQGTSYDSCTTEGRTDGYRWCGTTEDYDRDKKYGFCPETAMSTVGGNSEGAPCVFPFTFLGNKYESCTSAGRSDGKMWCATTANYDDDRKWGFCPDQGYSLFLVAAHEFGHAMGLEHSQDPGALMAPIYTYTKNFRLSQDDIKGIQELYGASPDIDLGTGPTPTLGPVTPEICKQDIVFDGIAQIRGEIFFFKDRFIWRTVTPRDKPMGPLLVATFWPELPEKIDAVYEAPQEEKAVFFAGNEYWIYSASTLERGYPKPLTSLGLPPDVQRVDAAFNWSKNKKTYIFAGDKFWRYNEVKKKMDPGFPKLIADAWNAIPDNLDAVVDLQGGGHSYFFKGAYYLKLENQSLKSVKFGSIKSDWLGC
# [6] = target: MMP-1/MMP-2 (Homo sapiens) (UniProt P08253+P03956); assay: Selectivity ratio of Ki for recombinant human MMP1 to Ki for recombinant human MMP2; format: protein assay
# [7] = species: Homo sapiens; assay: Selectivity ratio of IC50 for recombinant human MMP12 to IC50 for recombinant human MMP2
# [8] = species: Homo sapiens; assay: Selectivity ratio of Ki for recombinant human MMP3 to Ki for recombinant human MMP2
# [9] = Chemical stability of the compound in phosphate buffer at pH 4 assessed as residual rate incubated for 2 weeks by HPLC analysis; format: physicochemical; conditions: read-out: Stability
# [10] = target: T1, Macrophage metalloelastase; assay: Inhibition of human recombinant MMP12 using MOCAc-Lys-Pro-Leu-Gly-Leu-A2pr(Dnp)-Ala-Arg-N2 as substrate preincubated for 15 mins followed by substrate addition and measured after 120 mins by fluorescence based assay
# [11] = Chemical stability of the compound in phosphate buffer at pH 9 assessed as residual rate incubated for 2 weeks by HPLC analysis; format: physicochemical; conditions: read-out: Stability
# [12] = species: Homo sapiens; assay: Selectivity ratio of Ki for recombinant human MMP12 to Ki for recombinant human MMP2
# [13] = target: Neutrophil collagenase (Homo sapiens, UniProt P22894); assay: Inhibition of human recombinant MMP8 using MOCAc-Lys-Pro-Leu-Gly-Leu-A2pr(Dnp)-Ala-Arg-N2 as substrate preincubated for 15 mins followed by substrate addition and measured after 120 mins by fluorescence based assay
# [14] = Metabolic stability in human serum assessed as parent compound remaining measured for 4 hrs; format: ADME, cell-free; conditions: read-out: Stability
# [15] = target: T2, 72 kDa type IV collagenase; assay: Inhibition of human recombinant MMP2 using MOCAc-Lys-Pro-Leu-Gly-Leu-A2pr(Dnp)-Ala-Arg-N2 as substrate preincubated for 15 mins followed by substrate addition and measured after 120 mins by fluorescence based assay
# Target sequence in this assay (P08253 whole entry): as above
# [16] = target: T3, Collagenase 3 (Homo sapiens, UniProt P45452); assay: Inhibition of human recombinant MMP13 using MOCAc-Lys-Pro-Leu-Gly-Leu-A2pr(Dnp)-Ala-Arg-N2 as substrate preincubated for 15 mins followed by substrate addition and measured after 120 mins by fluorescence based assay
# [17] = target: T2, 72 kDa type IV collagenase; assay: Binding affinity to human MMP2 assessed as dissociative half-life
# Target sequence in this assay (P08253 110-660 limits assumed): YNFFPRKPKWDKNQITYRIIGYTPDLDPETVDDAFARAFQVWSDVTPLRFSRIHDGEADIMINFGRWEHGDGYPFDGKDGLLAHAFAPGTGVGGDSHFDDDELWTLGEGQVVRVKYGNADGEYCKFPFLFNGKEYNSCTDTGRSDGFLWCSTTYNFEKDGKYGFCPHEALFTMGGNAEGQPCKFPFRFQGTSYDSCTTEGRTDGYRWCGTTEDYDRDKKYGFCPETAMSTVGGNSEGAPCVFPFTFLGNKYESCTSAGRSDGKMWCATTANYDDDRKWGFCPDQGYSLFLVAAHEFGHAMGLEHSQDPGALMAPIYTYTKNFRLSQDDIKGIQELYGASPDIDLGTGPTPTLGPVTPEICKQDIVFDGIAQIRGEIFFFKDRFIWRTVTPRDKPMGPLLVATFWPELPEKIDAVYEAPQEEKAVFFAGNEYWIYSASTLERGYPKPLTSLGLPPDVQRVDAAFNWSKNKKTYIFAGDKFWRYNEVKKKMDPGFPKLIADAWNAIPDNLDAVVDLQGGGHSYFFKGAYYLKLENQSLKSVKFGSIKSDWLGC
# [18] = target: MMP-2/MMP-14 (Homo sapiens) (UniProt P50281+P08253); assay: Selectivity ratio of Ki for recombinant human MMP14 to Ki for recombinant human MMP2; format: protein assay
# [19] = target: T4, Interstitial collagenase (Homo sapiens, UniProt P03956); assay: Inhibition of human recombinant MMP1 using MOCAc-Lys-Pro-Leu-Gly-Leu-A2pr(Dnp)-Ala-Arg-N2 as substrate preincubated for 15 mins followed by substrate addition and measured after 120 mins by fluorescence based assay
# T4 sequence (P03956 whole entry): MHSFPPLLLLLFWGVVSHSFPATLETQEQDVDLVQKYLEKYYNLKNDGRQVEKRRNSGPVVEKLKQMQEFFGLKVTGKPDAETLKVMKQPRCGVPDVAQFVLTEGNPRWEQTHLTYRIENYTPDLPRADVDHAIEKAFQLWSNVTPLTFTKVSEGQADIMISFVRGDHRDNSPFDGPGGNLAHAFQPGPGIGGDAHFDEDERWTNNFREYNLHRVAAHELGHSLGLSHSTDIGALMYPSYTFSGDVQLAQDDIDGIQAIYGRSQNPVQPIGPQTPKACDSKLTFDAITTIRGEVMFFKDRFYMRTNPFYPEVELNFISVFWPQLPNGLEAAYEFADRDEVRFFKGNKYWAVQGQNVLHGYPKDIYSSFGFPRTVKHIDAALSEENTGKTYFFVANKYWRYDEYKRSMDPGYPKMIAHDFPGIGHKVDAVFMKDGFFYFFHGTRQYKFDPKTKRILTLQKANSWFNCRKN
# [20] = target: T5, MMP-2/MMP-13 (Homo sapiens) (UniProt P08253+P45452); assay: Selectivity ratio of IC50 for recombinant human MMP13 to IC50 for recombinant human MMP2; format: protein assay
# [21] = target: Matrix metalloproteinase-9 (Homo sapiens, UniProt P14780); assay: Inhibition of human recombinant MMP9 using MOCAc-Lys-Pro-Leu-Gly-Leu-A2pr(Dnp)-Ala-Arg-N2 as substrate preincubated for 15 mins followed by substrate addition and measured after 120 mins by fluorescence based assay
# [22] = target: T5, MMP-2/MMP-13 (Homo sapiens); assay: Selectivity ratio of Ki for recombinant human MMP13 to Ki for recombinant human MMP2; format: protein assay
# [23] = Chemical stability of the compound in phosphate buffer at pH 7.4 assessed as residual rate incubated for 2 weeks by HPLC analysis; format: physicochemical; conditions: read-out: Stability
# [24] = target: Matrix metalloproteinase-14 (Homo sapiens, UniProt P50281); assay: Inhibition of human recombinant MMP14 using MOCAc-Lys-Pro-Leu-Gly-Leu-A2pr(Dnp)-Ala-Arg-N2 as substrate preincubated for 15 mins followed by substrate addition and measured after 120 mins by fluorescence based assay
# [25] = target: T6, Matrilysin (Homo sapiens, UniProt P09237); assay: Inhibition of human recombinant MMP7 using MOCAc-Lys-Pro-Leu-Gly-Leu-A2pr(Dnp)-Ala-Arg-N2 as substrate preincubated for 15 mins followed by substrate addition and measured after 120 mins by fluorescence based assay
# T6 sequence (P09237 whole entry): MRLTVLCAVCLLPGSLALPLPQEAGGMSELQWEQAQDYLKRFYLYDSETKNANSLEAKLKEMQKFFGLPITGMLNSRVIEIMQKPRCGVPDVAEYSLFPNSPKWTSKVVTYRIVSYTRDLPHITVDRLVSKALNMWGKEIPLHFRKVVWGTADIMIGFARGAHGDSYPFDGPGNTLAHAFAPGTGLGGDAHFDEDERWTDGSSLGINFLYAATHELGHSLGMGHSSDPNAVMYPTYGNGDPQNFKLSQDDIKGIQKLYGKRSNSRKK
# [26] = target: T2, 72 kDa type IV collagenase; assay: Inhibition of recombinant human MMP2 using MOCAc-Lys-Pro-Leu-Gly-Leu-A2pr(Dnp)-Ala-Arg-N2 as substrate preincubated for 10 to 15 mins followed by substrate addition and measured after 60 to 120 mins by fluorescence based assay
# Target sequence in this assay (P08253 whole entry): as the sequence (P08253 whole entry) above
# [27] = target: T3, Collagenase 3; assay: Inhibition of human recombinant MMP13 using MOCAc-Lys-Pro-Leu-Gly-Leu-A2pr(Dnp)-Ala-Arg-N2 as substrate preincubated for 10 to 15 mins followed by substrate addition and measured after 60 to 120 mins by fluorescence based assay
# [28] = target: T2, 72 kDa type IV collagenase; assay: Inhibition of MMP2 (unknown origin)
# Target sequence in this assay (P08253 whole entry): as above
# T1 sequence (P39900 whole entry): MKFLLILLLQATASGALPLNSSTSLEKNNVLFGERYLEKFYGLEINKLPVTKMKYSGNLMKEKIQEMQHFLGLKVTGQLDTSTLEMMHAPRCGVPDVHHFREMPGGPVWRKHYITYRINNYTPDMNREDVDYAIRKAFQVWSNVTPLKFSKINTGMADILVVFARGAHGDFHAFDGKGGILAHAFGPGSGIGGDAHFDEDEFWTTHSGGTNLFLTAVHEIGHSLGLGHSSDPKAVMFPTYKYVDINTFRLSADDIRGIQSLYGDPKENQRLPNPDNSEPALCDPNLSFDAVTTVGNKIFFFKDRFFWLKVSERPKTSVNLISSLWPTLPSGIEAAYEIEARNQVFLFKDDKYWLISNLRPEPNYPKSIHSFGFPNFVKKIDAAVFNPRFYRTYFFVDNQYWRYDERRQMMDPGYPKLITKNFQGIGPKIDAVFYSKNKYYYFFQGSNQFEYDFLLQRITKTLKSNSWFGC
# T5 sequence (P08253 whole entry, looked up, other chains not shown): as the sequence (P08253 whole entry) above
# Sequence of Matrix metalloproteinase-9 (P14780 whole entry): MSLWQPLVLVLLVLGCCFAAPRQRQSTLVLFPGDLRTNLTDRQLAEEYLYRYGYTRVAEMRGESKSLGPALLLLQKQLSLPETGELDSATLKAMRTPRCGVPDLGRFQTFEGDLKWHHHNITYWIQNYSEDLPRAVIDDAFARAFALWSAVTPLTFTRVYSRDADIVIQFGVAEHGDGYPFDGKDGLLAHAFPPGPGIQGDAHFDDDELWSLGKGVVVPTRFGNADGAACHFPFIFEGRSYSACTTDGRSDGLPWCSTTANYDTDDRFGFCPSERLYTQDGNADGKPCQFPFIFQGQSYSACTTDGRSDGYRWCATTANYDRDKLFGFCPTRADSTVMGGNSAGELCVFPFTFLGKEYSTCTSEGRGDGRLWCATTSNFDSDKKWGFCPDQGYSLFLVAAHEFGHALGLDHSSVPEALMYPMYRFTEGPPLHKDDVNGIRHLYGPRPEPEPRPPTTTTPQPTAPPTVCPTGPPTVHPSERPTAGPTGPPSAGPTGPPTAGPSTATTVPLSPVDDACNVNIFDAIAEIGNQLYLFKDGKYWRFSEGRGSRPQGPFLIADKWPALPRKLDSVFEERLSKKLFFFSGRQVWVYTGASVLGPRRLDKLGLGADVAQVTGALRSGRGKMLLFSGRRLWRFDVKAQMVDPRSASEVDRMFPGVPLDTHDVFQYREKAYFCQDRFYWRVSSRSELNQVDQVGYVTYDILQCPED
# Sequence of Stromelysin-1 (P08254 whole entry): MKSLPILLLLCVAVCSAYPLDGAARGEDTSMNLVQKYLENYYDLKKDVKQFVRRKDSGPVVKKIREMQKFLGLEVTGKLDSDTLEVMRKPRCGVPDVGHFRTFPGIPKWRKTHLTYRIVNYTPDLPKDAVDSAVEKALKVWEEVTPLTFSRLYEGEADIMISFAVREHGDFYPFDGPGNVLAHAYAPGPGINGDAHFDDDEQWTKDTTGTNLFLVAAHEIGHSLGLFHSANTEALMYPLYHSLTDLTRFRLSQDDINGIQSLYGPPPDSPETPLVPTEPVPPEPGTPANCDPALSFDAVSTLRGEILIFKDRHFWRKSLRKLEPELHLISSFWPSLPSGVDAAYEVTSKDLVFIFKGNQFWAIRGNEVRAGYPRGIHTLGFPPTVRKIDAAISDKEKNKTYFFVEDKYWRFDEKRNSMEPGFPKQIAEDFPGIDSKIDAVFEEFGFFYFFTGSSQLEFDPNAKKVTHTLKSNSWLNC
# Sequence of MMP-1/MMP-2 (Homo sapiens) (P08253 whole entry, looked up, one chain of several): as the sequence (P08253 whole entry) above
# Sequence of Neutrophil collagenase (P22894 whole entry): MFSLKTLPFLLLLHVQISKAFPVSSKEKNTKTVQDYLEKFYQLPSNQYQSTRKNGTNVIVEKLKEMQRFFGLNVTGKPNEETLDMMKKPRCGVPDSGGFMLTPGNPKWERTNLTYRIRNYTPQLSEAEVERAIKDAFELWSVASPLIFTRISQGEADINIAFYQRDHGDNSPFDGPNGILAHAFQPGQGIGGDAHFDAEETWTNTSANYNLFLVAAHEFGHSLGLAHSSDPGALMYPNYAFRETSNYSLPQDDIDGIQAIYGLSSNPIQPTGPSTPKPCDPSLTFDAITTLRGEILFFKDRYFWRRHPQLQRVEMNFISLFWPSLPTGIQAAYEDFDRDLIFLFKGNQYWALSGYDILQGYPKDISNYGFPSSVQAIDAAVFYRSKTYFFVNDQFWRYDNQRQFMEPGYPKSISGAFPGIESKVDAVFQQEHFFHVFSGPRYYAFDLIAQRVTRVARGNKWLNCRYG
compound,measurement,setting,value
CC(C)C[C@H](NC(=O)[C@@H]1C[C@H](N)CN1C(=O)CC[C@@H](NS(=O)(=O)c1ccc(NC(=O)c2ccc(C(N)=O)cc2)cc1)C(=O)O)C(=O)N(C)[C@@H](CCC(=O)O)C(=O)NCCCCC(N)=O,Ratio Ki,[1],56000
same,IC50,[2],250 nM
same,Ki,[3],4900 nM
same,Ratio Ki,[4],53000
same,IC50,[5],0.034 nM
same,Ratio Ki,[6],7.9e+06
same,Ratio IC50,[7],1100
same,Ratio Ki,[8],140000
same,remaining at 336 h,[9],98.7%
same,Ki,[10],170 nM
same,remaining at 336 h,[11],98.1%
same,Ratio Ki,[12],5000
same,IC50,[13],1800 nM
same,remaining at 4 h,[14],93.1%
same,IC50,[15],0.22 nM
same,Ki,[16],110 nM
same,T1/2,[17],4.42 h
same,Ratio Ki,[18],2000
same,IC50,[19],270000 nM
same,Ratio IC50,[20],1100
same,Ki,[21],1900 nM
same,Ratio Ki,[22],3200
same,remaining at 336 h,[23],99%
same,Ki,[24],68 nM
same,Ki,[25],150000 nM
same,Ki,[26],0.034 nM
CC(C)C[C@H](NC(=O)[C@H](CCN)NC(=O)[C@H](CC(=O)O)NC(=O)[C@H](CCC(=O)O)NC(=O)CCCCNC(=O)c1ccc(Oc2ccc(C(N)=O)cc2)cc1)C(=O)N(C)[C@@H](CCC(=O)O)C(=O)N1CCC[C@H]1CC(N)=O ({Benzoyl(4-OPh(4-CONH2))-Ava}-ED[Dab]L[NMeE][β3hP]-NH2),remaining at 336 h,[9],69.5%
same,remaining at 336 h,[11],87.7%
same,remaining at 336 h,[23],89%
CC[C@H](C)[C@@H](C(=O)NCCCCC(N)=O)N(C)C(=O)[C@H](CC(C)C)NC(=O)[C@H](CCN)NC(=O)CC[C@@H](NS(=O)(=O)c1ccc(NC(=O)c2ccc(C(N)=O)cc2)cc1)C(=O)O,IC50,[2],410 nM
same,Ratio IC50,[7],1900
same,IC50,[27],690 nM
same,remaining at 336 h,[9],98.3%
same,remaining at 336 h,[11],47.6%
same,Ratio IC50,[20],3100
same,remaining at 336 h,[23],88.8%
same,IC50,[26],0.22 nM
CC[C@H](C)[C@@H](C(=O)N1CCC[C@H]1CC(N)=O)N(C)C(=O)[C@H](CC(C)C)NC(=O)[C@H](CCN)NC(=O)[C@H](CC(=O)O)NC(=O)[C@H](CCC(=O)O)NC(=O)CCCCNC(=O)c1ccc(Oc2ccc(C(N)=O)cc2)cc1 ({Benzoyl(4-OPh(4-CONH2))-Ava}-ED[Dab]L[NMeI][β3hP]-NH2),IC50,[28],0.18 nM
